Measurements reported in publication PMC10541411 (Nature Communications, 2023).

Key:
53BP1^TT WT = 53BP1^TT WT (Homo sapiens, UniProt Q12888); experiment: 1H-15N HSQC NMR titration of 15N-labeled wild-type 53BP1TT; type: binding; set-up: The tandem Tudor domain of 53BP1 (53BP1^TT, residues 1481–1603) was purified as previously described; made in house; host or cells: E. coli (only for the SAXS sample); conditions: 15N-labeled WT 53BP1TT
Description: (§1) All NMR data were collected at 25 °C on a 700 MHz Bruker Avance III spectrometer equipped with a cryoprobe. Data were processed and analyzed with NMRPipe[54] and NMRViewJ[55],[56].
(§2) To probe chemical shift perturbations, ^1H-^15N HSQC spectra were acquired on the following samples: 0.2 mM ^15N-labeled 53BP1^TT WT and 53BP1^TT-PN in 25 mM sodium phosphate, pH 7.0, 1.5 mM NaN3, 0.3 mM DSS, 90% H2O/10% D2O, free and incrementally titrated with various non-labeled inhibitors (UNC1078, UNC1118, UNC2170, UNC2991, UNC3474), as well as with H4KC20me2 and p53K382me2 peptides. Chemical shift perturbations (Δδ) were calculated using the Eq. (1):1 Δδ=(ΔN/5)^2+ΔH^2 where ΔN and ΔH are the corresponding differences in ^15N and ^1H chemical shifts between the bound and free forms of 53BP1.

[1] = test system: 53BP1^FFR-CC IRIF in U2OS cells; experiment: 53BP1FFR ionizing radiation-induced foci (IRIF) formation, immunofluorescence, CC mutant; type: cell-based, Homo Sapiens; conditions: 1 Gy X-ray, different concentrations of UNC3474
From the text: (§3) The foci-forming region (FFR; residues 1220–1711) of wild-type 53BP1 and mutants E1549P/D1550N (53BP1^FFR-PN) and E1549C/E1567C (53BP1^FFR-CC) were inserted into the retroviral vector POZ. The primers used to introduce the E1549P/D1550N mutations are: […] (forward) and […] (reverse). The primers used to introduce the E1549C/E1567C mutations are: […] (forward) and […] (reverse). The 53BP1^FFR constructs were stably expressed at a moderate level in U2OS cells. To probe the effect of UNC3474 on 53BP1^FFR IRIF formation, U2OS cells were grown on glass coverslips, pre-incubated for 1 h with various concentrations of UNC3474 and exposed to 1 Gy of X-ray radiation. After 1 h, the cells were fixed in 4% formaldehyde in PBS for 15 min at room temperature and blocked and permeabilized for 1 h in PBS containing 0.3% Triton X-100, 1% BSA, 10% fetal bovine serum. […]
(§4) Cell samples were subjected to z-stack scanning with a total depth of 5 μm to comprehensively capture all 53BP1^FFR and γH2A.X IRIF within the cell nuclei, which were fluorescently labeled with DAPI. […] To assess the quantification of 53BP1^FFR and γH2A.X foci per nuclei, a customized CellProfiler (version 3.0)[68] pipeline was employed. […]

[2] = test system: 53BP1^FFR-PN IRIF in U2OS cells; experiment: 53BP1FFR ionizing radiation-induced foci (IRIF) formation, immunofluorescence, PN mutant; type: cell-based, Homo Sapiens; conditions: 1 Gy X-ray, different concentrations of UNC3474
From the text: as §3, §4

[3] = target: T1, 53BP1^TT-PN (E1549P/D1550N) (Homo sapiens, UniProt Q12888, D1550N/E1549P); experiment: 1H-15N HSQC NMR titration of 15N-labeled 53BP1TT-PN; type: binding; conditions: up to fourfold molar excess
T1 construct: The tandem Tudor domain of 53BP1 (53BP1^TT, residues 1481–1603) was purified as previously described; made in house
T1 sequence (Q12888 1481-1603 E1549P/D1550N): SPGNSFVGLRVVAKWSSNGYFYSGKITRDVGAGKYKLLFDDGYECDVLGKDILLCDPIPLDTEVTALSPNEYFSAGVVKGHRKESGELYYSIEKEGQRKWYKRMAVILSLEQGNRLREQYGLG
Description: as §1, §2

53BP1^TT = target: T2, 53BP1^TT (Homo sapiens, UniProt Q12888); experiment: Sedimentation velocity analytical ultracentrifugation (AUC); conditions: 53BP1TT 20 μM, UNC3474 10-200 μM
T2 construct: The tandem Tudor domain of 53BP1 (53BP1^TT, residues 1481–1603) was purified as previously described; made in house; host or cells: E. coli (only for the SAXS sample)
T2 sequence (Q12888 1481-1603): as the sequence (Q12888 1481-1603 E1549P/D1550N) above, with P69E, N70D counted along it
Description: The AUC experiments were performed at 20 °C in 20 mM sodium phosphate, pH 7.5, with 50 mM NaCl. 53BP1^TT was at a concentration of 20 μM. Measurements were recorded on an Optima analytical ultracentrifuge (Beckman Coulter) with an An-50 Ti analytical 8-place rotor using absorbance detection at 280 nm. Sample-filled AUC cells assembled with 12-mm charcoal-filled Epon centerpieces and quartz windows were subjected to 3 h of equilibration at 20 °C under vacuum prior to initiating the experiments at 50,000 rpm (corresponding to 182,000 × g at the cell center and 201,600 × g at the cell bottom) with continuous data acquisition for 20 h (200 scans) at 20 °C. The AUC data were analyzed with the c(s) model in SEDFIT[66] using a partial specific volume of 0.7335 mL/g.

Chain of 53BP1^TT WT (Q12888 1481-1603): as the sequence (Q12888 1481-1603 E1549P/D1550N) above, with P69E, N70D counted along it

For `CC(C)c1cccc(C(=O)NCCCNC(C)(C)C)c1` [UNC3474], which “changes in signal positions in the 1H-15N HSQC spectrum of 53BP1TT upon titration” value (53BP1^TT WT) is on record?
Its value is “slow exchange on the chemical shift time scale”.

What about the “53BP1FFR-CC IRIF” value [1] of the same molecule?
The value was “no significant change”.

And the “53BP1FFR-PN IRIF” value [2]?
Its value is “no significant change”.

And the “interaction with 53BP1TT-PN (1H-15N HSQC titration)” value [3]?
The value was “did not interact”.

And the “change in sedimentation coefficient of 53BP1TT” value (53BP1^TT)?
Its value is “consistent with the dimerization of 53BP1^TT”.
